Experimental data from US8420776B2, “Ube2G2 binding domain in the ubiquitin ligase gp78 and methods of use thereof” (The United States of America, as Represented by the …, priority 2004, dated 2013).
Entries after “also recorded” stand apart in the source; their conditions may differ. Ends that are not written are not given here. Peptide text beside a SMILES is read from it. * marks the point of attachment. Cbz = O=C(OCc1ccccc1)*

Tests used:
[1] = target: T1, lysine 48-linked (K48) tetra-ubiquitin (Homo sapiens, UniProt P0CG47); test: Tetra-ubiquitin binding to GST fusions; details: anti-ubiquitin immunoblot
T1 construct: 1 μg K48 tetra-ubiquitin produced as described (Piotrowski et al., 1997); made in house
Procedure: GST fusions were purified from E. Coli. Binding was carried out using equi-molar amount of fusion proteins measured by Commassie blue staining. Generally, 20 picomoles/sample were used. In vitro translated E2 was generated by coupled transcription and translation using 35S methionine in either wheat germ or rabbit reticulocyte lysate. Binding assays using in vitro translated E2 was carried out by incubating GST protein pre-bound to Glutathione-sepharose 4B with […] of ^35S-methionine labeled E2 in binding buffer (25 mM Tris-HCl, pH 7.4; 50 mM NaCl, 5 mM DTT; and 0.5% NP-40) overnight at 4° C. Beads were washed with binding buffer and resolved by SDS-PAGE under reducing conditions. Analysis was by Storm PhosphoImager (Applied Biosystems, Foster City, Calif.). Direct binding assays used wild type His6-MmUbc7 (His6-Ube2G2) and Glutathione-sepharose bound GST fusions. Beadbound GST protein was incubated with 100 ng purified His6-MmUbc7 in binding buffer and washed and eluted as above. After transfer to Hybond-P (Amersham Biosciences) binding was assessed with anti-His6 followed by Enhanced Chemiluminescence ECL; Pierce). Ubiquitin binding studies were performed with binding and washing as above using 1 μg K48 tetra-ubiquitin produced as described (Piotrowski et al., 1997). Detection was by anti-ubiquitin immunoblotting.

[2] = test system: ERAD substrate CD3-δ; test: CD3-δ level in co-transfected cells by immunoblotting; format: cell-based; details: for effect on CD3-δ level (stabilization): co-transfection with CD3-δ, immunoblot
Procedure: (§1) Transfections of HT1080, NIH 3T3 and HEK 293T cells were carried out ˜24 hr after plating using Polyfect (Qiagen, Valencia, Calif.) and cells harvested after ˜48 hr. J558 cells were transfected by electroporation using Bio-rad GENE pulser II at settings of 250 v, 950uF. Vector without insert was used to equalize total plasmid. In most experiments 0.15 μg of pEGFP-C1 served as an internal control. For experiments not involving immunoprecipitation, 6×10^5 cells were plated in 6 well plates and cell lysis was with Mammalian Protein Extraction Reagent (Pierce). For immunoprecipitation, 2.4×10^6 cells were seeded in 100 mm dishes and cells were lysed in RIPA buffer (1×PBS, 1% Nonidet P40. 0.5% sodium deoxycholate, 0.1% SDS). Lysis buffers were supplemented with Protease Inhibitor Cocktail (Sigma) and 10 mM iodoacetamide. Supernatants were analyzed after a 10,000×g centrifugation using standard techniques for immunoprecipitation, SDS-PAGE, immunoblotting and ECL. Treatment of cells with MG132 (Sigma) was at 50 μM for eight hr. Cycloheximnide was used at 50 μg/ml. All cells were collected at the end of the six hr chase.
FIG. 7 depicts the stabilization of CD3-δ protein in cells transfected with the G2BD, but not with the G2BD with amino acids 579-584 (of SEQ ID NO:2) mutated. HEK 293T cells were transfected with the ERAD substrate CD3-δ along with the indicated GFP fusions of gp78. The left and right sides are two separate experiments.
(§2) To test this, GFP fusions of either a minimal E2 binding domain (GFP-574-611) or a more extended region that includes the C-terminus of gp78 (GFP-574-643) were evaluated (FIG. 21A). […] To assess this further, the C-terminal region of gp78 was fused to the eight amino acid Flag tag. […] Mdm2 is a RING finger E3 for both itself and p53 that is neither an ERAD substrate nor known to utilize Ube2G2 as an E2. […] To establish with certainty that the effect observed with expression of the Ube2G2 binding site is a consequence of binding endogenous E2, and not due to other unanticipated effects, cells were co-transfected with increasing amounts of Ube2G2 (FIG. 21C, lanes 3 and 4). […] These findings clearly establish that the isolated E2 binding site has the potential to markedly alter ERAD of CD3-δ. To ensure the effect observed was not peculiar to one substrate, TCR-α was evaluated (FIG. 21D).

[3] = test system: ERAD substrate TCR-α; test: TCR-α level in co-transfected cells; format: cell-based; details: co-transfection with TCR-α
Procedure: as §1
FIG. 9 depicts the stabilization of endogenous TCRα by the G2BD. TCR-α is a subunit of the T cell antigent receptor and an ERAD substrate. TCR-α was stabilized by the region implicated in Ube2G2 binding.
as §2

[4] = test system: Mdm2; test: Mdm2 level in co-transfected cells; format: cell-based; details: cells transfected with CD3-δ and Mdm2
Procedure: as §1
To test this, GFP fusions of either a minimal E2 binding domain (GFP-574-611) or a more extended region that includes the C-terminus of gp78 (GFP-574-643) were evaluated (FIG. 21A). […] To ensure the effect observed was not peculiar to one substrate, TCR-α was evaluated (FIG. 21D).

[5] = test system: gp78; test: gp78 level in transfected cells by immunoblotting; format: cell-based
Procedure: as §1, with “All cells were collected at the end of the six hr chase.” left out
gp78 is degraded in a proteasome-dependent manner, and deletion of the entire cytoplasmic domain results in its stabilization. […] To determine the significance of the RING finger, Cue domain and Ube2G2 binding site on gp78 stability, mutations of each were evaluated within full-length gp78. […]

[6] = target: T2, Myc-Ube2G2 (Mus musculus, UniProt P60605); test: Co-immunoprecipitation with co-expressed Myc-Ube2G2 in cells; format: cell-based; details: anti-Myc IP, anti-GFP IB
T2 construct: expressed in transfected cells; host or cells: HEK 293T
T2 sequence (P60605 1-165): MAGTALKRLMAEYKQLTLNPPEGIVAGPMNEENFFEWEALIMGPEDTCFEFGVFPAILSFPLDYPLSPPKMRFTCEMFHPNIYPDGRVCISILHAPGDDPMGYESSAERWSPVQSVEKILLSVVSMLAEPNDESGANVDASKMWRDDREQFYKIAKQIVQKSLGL
Procedure: as §1
FIG. 5 depicts the results of immunoprecipitation of Ube2G2 (MmUbc7) from HEK 293T cells co-transfected with a plasmid encoding myc-tagged MmUbc7/Ube2G2 together with s plasmid encoding various forms of gp78. […]

[7] = target: T3, Ube2G2/MmUbc7 (Mus musculus, UniProt P60605); test: GST pull-down binding of in vitro translated 35S-Met Ube2G2/MmUbc7; set-up: species or system human; details: GST fusion pull-down; 35S-Met labeled E2
T3 construct: made in house; host or cells: coupled in vitro transcription/translation in rabbit reticulocyte lysate or wheat germ
T3 sequence (P60605 1-165): T2 sequence (P60605 1-165)
Procedure: GST fusions were purified from E. Coli. Binding was carried out using equi-molar amount of fusion proteins measured by Commassie blue staining. Generally, 20 picomoles/sample were used. In vitro translated E2 was generated by coupled transcription and translation using 35S methionine in either wheat germ or rabbit reticulocyte lysate. […] Beads were washed with binding buffer and resolved by SDS-PAGE under reducing conditions. Analysis was by Storm PhosphoImager (Applied Biosystems, Foster City, Calif.). Direct binding assays used wild type His6-MmUbc7 (His6-Ube2G2) and Glutathione-sepharose bound GST fusions. Beadbound GST protein was incubated with 100 ng purified His6-MmUbc7 in binding buffer and washed and eluted as above. After transfer to Hybond-P (Amersham Biosciences) binding was assessed with anti-His6 followed by Enhanced Chemiluminescence ECL; Pierce).
The E2 enzymes were in vitro translated using wheat germ.
GST fusion proteins encoding the regions indicated in FIGS. 3A-3C were evaluated for the ability to bind to Ube2G2/MmUbc7 that had been in vitro transcribed and translated in rabbit reticulocyte lysate. gp78C represents the entire C-terminal cytoplasmic domain of gp78 (amino acid residues 309-643 of SEQ ID NO:2).

## UBA-Cbl-b: GST fusion of the UBA of the RING finger E3 Cbl-b (NVDAKIAKLMGEGYAFEEVKRALEIAQNNVEVARSILREF; also: GST fusion partner, not in chain) [reference compound]
[1]
  binding of K48 tetra-ubiquitin: binds

## CC(C)C[C@@H](C=O)NC(=O)[C@H](CC(C)C)NC(=O)[C@H](CC(C)C)NC(=O)OCc1ccccc1 [MG132, reference compound] (Cbz-Leu-Leu-Leu-aldehyde)
[2]; cells expressing Flag-tagged gp78 574-643, 2 or 4 μg Ube2G2 plasmid
  reversal of G2BD-induced CD3-δ stabilization by co-transfected Ube2G2: blocked the effect of transfected Ube2G2
[3]
  effect on TCR-α level (stabilization): prevented degradation of TCR-α
[4]
  effect on Mdm2 level (stabilization): led to Mdm2 stabilization
[5]
  effect of proteasome inhibitor on gp78 level: stabilized wild type gp78

## 579-600: GFP fusion of amino acids 579-600 of SEQ ID NO:2 (QRMLVQRKDELLQQARKRFLNK; listed as Homo sapiens)
[6]
  binding of GFP fusion to co-expressed Myc-Ube2G2 in cells: sufficient to bind Ube2G2 in cells

## 574-608: GST fusion of amino acids 574-608 of gp78 (SEQ ID NO:2) (SADERQRMLVQRKDELLQQARKRFLNKSSEDDAAS; listed as Homo sapiens)
[7]
  binding to in vitro translated Ube2G2/MmUbc7: sufficient for binding to Ube2G2; also recorded: bound in vitro translated Ube2G2 comparably to the complete gp78 C-terminal tail

## GFP-574-611E2-m2: GFP fusion of gp78 574-611 with the E2 binding site mutation of residues 579 to 584
[2]
  effect on CD3-δ level (stabilization): totally prevented this stabilization
[2]; listed as G2BD with amino acids 579-584 (of SEQ ID NO:2) mutated
  effect on CD3-δ level (stabilization): loss of this effect
[3]
  effect on TCR-α level (stabilization): did not
